In PubChem BioAssay (NCI):
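Each compound was tested at five concentrations against cells in 96-well plates for 48 hours. TGI is the concentration that stops growth completely.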 Where a SMILES comes first, the peptide text is derived from it. [ ]: non-standard residue; d: D form. pGlu = O=C1CC[CH](C(=O)O)N1; Thz = O=C(O)[CH]1CSCN1

Legend:
Test in all cases: NCI tumour cell line growth inhibition, 48 h
[1] = system: HCT-15 colon
[2] = system: HL-60(TB) leukemia
[3] = system: HOP-92 NSCLC
[4] = system: HT29 colon
[5] = system: K-562 leukemia
[6] = system: M14 melanoma
[7] = system: MALME-3M melanoma
[8] = system: NCI-H226 lung
[9] = system: SK-MEL-2 melanoma
[10] = system: SK-OV-3 ovarian
[11] = system: UO-31 renal
[12] = system: HOP-62 NSCLC

Structure (SMILES)	TGI [1] [µM]	TGI [2] [µM]	TGI [3] [µM]	TGI [4] [µM]	TGI [5] [µM]	TGI [6] [µM]	TGI [7] [µM]	TGI [8] [µM]	TGI [9] [µM]	TGI [10] [µM]	TGI [11] [µM]	TGI [12] [µM]
COC(=O)c1ccc(NCc2cc(OC)ccc2OC)cc1	> 100	> 100	> 100	> 100	> 100	> 100	> 100	> 100	> 100	> 100	> 100	
CCOP(=O)(CC(=O)C1CC1)OCC	> 100	> 100		> 100	> 100	> 100	> 100	> 100	> 100	> 100	> 100	> 100
COc1cc(C2C=C(c3ccccc3)Oc3cc4c(cc32)OCO4)cc(OC)c1OC (stereo not given)	> 100	> 34.3	> 100	> 18.3	> 100	> 100	> 100		> 81.1	> 100	> 100	> 100
O=C1CCC(C(=O)N2CSCC2C(=O)O)N1 (stereo not given) ([pGlu]-[Thz]-OH; configuration not given here)	> 100	> 100		> 100	> 100	> 100	> 100	> 100	> 100	> 100	> 100	> 100
OC1NC2Nc3ccccc3NC2NC1O (stereo not given)	> 100	> 100	> 100	> 100	> 100	> 100	> 100	> 100	> 100	> 100		> 100
O=[N+]([O-])c1ncc(N(CCO)CCO)s1	> 100	40.7		> 100	57.5	> 100	36.3	> 100	45.3	> 100	> 100	> 100
COC(=O)C1=CO[C@@H](C)[C@@H]2Cn3ccc4c5ccccc5nc-4c3C[C@H]12	> 100		> 100	> 100	> 100	> 100	> 100	> 100	> 100	> 100	> 100	> 100
C(=N\c1nc2cc3sc(/N=C/c4ccccc4)nc3cc2s1)/c1ccccc1	> 100		> 100	> 100	> 100	> 100	> 100	> 74	> 100	> 100	> 100	> 100
Nn1c(CCCCCCCCc2nnc(-c3c(O)ccc4ccccc34)n2N)nnc1-c1c(O)ccc2ccccc12	> 100	> 100	> 100	> 100		> 100	> 100	> 100	> 100	> 100	> 100	> 100
CCOP(=O)(OCC)Oc1c(OC)c2[nH]c(C(=O)OC)cc2c2c(C(=O)O)c[nH]c12	> 100	> 100	> 100	> 100	> 100	> 100	> 100		> 100	> 100	> 100	> 100
